Laboratory results reported in patent US12691070B2, “Cationic lipids and preparation method thereof” (RiboX Therapeutics HK Limited, priority 2023, dated 2026).

Legend:
RAW 264.7 cells [1] = test: In vitro expression of firefly-luciferase, RAW 264.7; assay type: cell-based; details: cirRNA (SEQ ID NO: 1) LNPs; firefly-luciferase luminescence; RAW 264.7 cells
Summary of the method: (§1)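 Cells were transfected with firefly-luciferase-encoding RNA-LNPs at 100 ng/mL. After 72 hours they were washed and lysed, and luciferase activity in the lysates was read by luminometry.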

[2] = LNP zeta potential (Zetasizer); assay type: physicochemical; details: LNP with cirRNA (SEQ ID NO: 1)
Summary of the method: (§2)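 LNPs of ionizable lipid/DSPC/cholesterol/DMG-PEG 2000 (50:10:38.5:1.5) made by microfluidic mixing of luciferase circRNA or mRNA in pH 4.5 acetate with lipids in ethanol (3:1, 12 ml/min), ionizable lipid:nucleotide 15 or 6, then dialyzed against PBS. Size, PDI (DLS) and zeta potential on Zetasizer; encapsulation by Ribogreen ± Triton X-100.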

[3] = RNA encapsulation efficacy by Quant-IT Ribogreen kit; assay type: physicochemical; details: LNP with cirRNA (SEQ ID NO: 1)
Summary of the method: as §2

[4] = LNP size and polydispersity index (PDI) by dynamic light scattering; assay type: physicochemical; details: LNP with cirRNA (SEQ ID NO: 1); for Size: in nm (unit assumed)
Summary of the method: as §2

Hep G2 cells [5] = test: In vitro toxicity (CellTiter-Glo cell viability), Hep G2; assay type: cell-based; details: cirRNA (SEQ ID NO: 1) LNPs; Hep G2 cells;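 also: percent of untreated cells luminescence signal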
Summary of the method: (§3)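 Cells were transfected with RNA-LNPs at 1 μg/mL and, 72 hours later, viability was measured by CellTiter-Glo luminescence. Values are cell viability calculated from the luminescence signal.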

Hep G2 cells [6] = test: In vitro expression of firefly-luciferase, Hep G2; assay type: cell-based; details: cirRNA (SEQ ID NO: 1) LNPs; firefly-luciferase luminescence; Hep G2 cells
Summary of the method: as §1

RAW 264.7 cells [7] = test: In vitro toxicity (CellTiter-Glo cell viability), RAW 264.7; assay type: cell-based; details: cirRNA (SEQ ID NO: 1) LNPs; RAW 264.7 cells;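 also: percent of untreated cells luminescence signal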
Summary of the method: as §3

BALB/C mice = test: In vivo expression, whole-body luminescence (IVIS); details: cirRNA (SEQ ID NO: 1) LNPs, BALB/C mice
Protocol: 6-8 week old, female BALB/C mice were injected with 0.05 mg*kg-1 of RNA-LNPs encoding for firefly-luciferase by intravenous injection. At 6 hours post injection, animals were intraperitoneally injected with 15 mg/ml of Luciferin substrate and whole-body luminescence was determined by a bioluminescent in vivo imaging system (IVIS).

SMILES | In vitro Expression RAW (RAW 264.7 cells [1]) | Zeta (mV) [2] | Encapsulation Efficiency % [3] | PDI [4] | Size [4] | In vitro Viability HepG2 (Hep G2 cells [5]) | In vitro Expression HepG2 (Hep G2 cells [6]) | In vitro Viability RAW (RAW 264.7 cells [7]) | In vivo Expression (Whole Body) (BALB/C mice)
CCCCCCCC/C=C\CCCCCCCCN(CCCCCCCCOC(=O)C(CCCCCC)CCCCCCCC)CCOC(=O)NCCCN(CC)CC (stereo not drawn) [Lipid 213] | 2.06E+04 | 13.22 mV | 94% | 0.2952 | 114.2 | 74% | 6.40E+06 | 90% | 2.11E+06
CCCCCCCC/C=C\CCCCCCCCN(CCCCCCCCOC(=O)C(CCCCCC)CCCCCCCC)CCOC(=O)NCCN1CCN(C)CC1 (stereo not drawn) [Lipid 214] | 1.20E+05 | 5.906 mV | 96% | 0.304 | 76.43 | 83% | 3.88E+06 | 87% | 1.18E+06
CCCCCCCC/C=C\CCCCCCCCN(CCCCCCCCOC(=O)C(CCCCCC)CCCCCCCC)CCOC(=O)NCCN1CCOCC1 (stereo not drawn) [Lipid 215] | 7.31E+03 | −3.755 mV | 96% | 0.05226 | 62.22 | 85% | 5.62E+04 | 86% | 1.61E+07
CCCCCCCC/C=C\CCCCCCCCN(CCCCCCCCOC(=O)C(CCCCCC)CCCCCCCC)CCOC(=O)NCCCN(C)C (stereo not drawn) [Lipid 216] | 3.31E+05 | 11.61 mV | 96% | 0.4093 | 75.92 | 76% | 1.59E+07 | 75% | 1.34E+06
CCCCCCCC/C=C\CCCCCCCCN(CCCCCCCCOC(=O)C(CCCCCC)CCCCCCCC)CCOC(=O)NCCCn1ccnc1 (stereo not drawn) [Lipid 217] | 8.05E+03 | 1.061 mV | 94% | 0.1439 | 60.05 | 82% | 2.45E+04 | 90% | 7.35E+06
CCCCCCCC/C=C\CCCCCCCCN(CCCCCCCCOC(=O)C(CCCCCC)CCCCCCCC)CCOC(=O)NCCN1CCCC1 (stereo not drawn) [Lipid 218] | 9.16E+04 | 5.94 mV | 96% | 0.3124 | 96.36 | 71% | 5.25E+06 | 62% | 7.53E+07
CCCCCCCC/C=C\CCCCCCCCN(CCCCCCCCOC(=O)C(CCCCCC)CCCCCCCC)CCOC(=O)NCCN1CCCCC1 (stereo not drawn) [Lipid 219] | 3.53E+04 | 0.7668 mV | 93% | 0.1125 | 76.57 | 58% | 7.09E+05 | 80% | 1.34E+08
CCCCCCCCCCCOC(=O)CCCCCN(CCCCCCCCOC(=O)C(CCCCCC)CCCCCCCC)CCOC(=O)NCCN(C)C (stereo not drawn) [Lipid 220] | 1.52E+04 | 10.78 mV | 96% | 0.304 | 112.7 | 89% | 3.55E+06 | 98% | 1.45E+07
CCCCCCCCCCCOC(=O)CCCCCN(CCCCCCCCOC(=O)C(CCCCCC)CCCCCCCC)CCOC(=O)NCc1ncc[nH]1 (stereo not drawn) [Lipid 221] | 5.03E+05 | −1.368 mV | 91% | 0.1852 | 65.7 | 87% | 2.82E+05 | 83% | 1.79E+07
CCCCCCCCCCCOC(=O)CCCCCN(CCCCCCCCOC(=O)C(CCCCCC)CCCCCCCC)CCOC(=O)NCCN1CCN(C)CC1 (stereo not drawn) [Lipid 222] | 8.85E+04 | 26.75 mV | 97% | 0.4109 | 98.73 | 42% | 1.63E+06 | 87% | 1.59E+06
CCCCCCCCCCCOC(=O)CCCCCN(CCCCCCCCOC(=O)C(CCCCCC)CCCCCCCC)CCOC(=O)NCCN1CCOCC1 (stereo not drawn) [Lipid 223] | 4.76E+04 | −2.046 mV | 92% | 0.08837 | 60.01 | 92% | 6.42E+04 | 76% | 5.53E+06
CCCCCCCCCCCOC(=O)CCCCCN(CCCCCCCCOC(=O)C(CCCCCC)CCCCCCCC)CCOC(=O)NCCCN(C)C (stereo not drawn) [Lipid 224] | 6.89E+03 | 27.23 mV | 97% | 0.4284 | 86.14 | 90% | 3.58E+05 | 73% | 5.05E+05
CCCCCCCCCCCOC(=O)CCCCCN(CCCCCCCCOC(=O)C(CCCCCC)CCCCCCCC)CCOC(=O)NCCN1CCCC1 (stereo not drawn) [Lipid 226] | 9.79E+03 | 14.86 mV | 95% | 0.298 | 115.7 | 91% | 7.79E+05 | 108% | 2.20E+07
CCCCCCCCCCCOC(=O)CCCCCN(CCCCCCCCOC(=O)C(CCCCCC)CCCCCCCC)CCOC(=O)NCCN1CCCCC1 (stereo not drawn) [Lipid 227] | 1.99E+05 | 4.217 mV | 92% | 0.1088 | 79.97 | 82% | 4.71E+05 | 83% | 9.21E+07
CCCCC/C=C\CCOC(=O)CCCCCN(CCCCCC(=O)OCC(CCCCCCCC)CCCCCCCCCC)CCOC(=O)NCCN1CCCC1 (stereo not drawn) [Lipid 244] | 9.56E+02 | −0.164 mV | 96% | 0.3577 | 87.4 | 94% | 3.62E+06 | 90% | 3.95E+07
